From patent US20260356817A1, “AMINOPYRIMIDINE AND AMINOTRIAZINE DERIVATIVES AS MYC PROTEIN MODULATORS” (Sanford Burnham Prebys Medical Discovery Institute, priority 2022, published 2026)
Where two headings read alike, the source gives them in different places.

Test system: Myc
Test: Myc inhibition assay: Myc expression per cell by anti-Myc immunofluorescence, high-content imaging
Assay type: cell-based, human (patient-derived medulloblastoma xenograft cells)
Details: medulloblastoma PDX cells, 4 h
Source text: To identify Myc inhibitors, cells isolated from patient-derived orthotopic xenografts (PDXs) from patients with Myc-driven medulloblastoma were used. Specifically, PDX cells were propagated by transplantation directly into the cerebellum of immunodeficient (NSG) mice and were never passaged in vitro in order to maintain properties of the tumor from which they were derived. Tumor tissues were isolated from tumor-bearing animals, dissociated into a single-cell suspension, resuspended in serum-free media, and immediately plated in 384 well plates. After overnight recovery, compounds were added to each well, and cells were incubated for 4 hours before being fixed and stained with anti-Myc antibodies and with DAPI to label nuclei. Cells were then analyzed using high-content imaging to determine the levels of Myc expression per cell and IC50 values of the compounds.

[1] = Table 1, read-out: IC50 (Myc inhibition)
[2] = Table 2, read-out: MYC Inhibition IC50

| SMILES | IC50 [1] | IC50 [2] |
| --- | --- | --- |
| Fc1cnc(Nc2cccc(C(F)(F)F)n2)cc1-c1ccc2nc[nH]c2c1 [Compound 279, 4-(1H-benzo[d]imidazol-6-yl)-5-fluoro-N-(6-(trifluoromethyl)pyridin-2-yl)pyridin-2-amine] | < 0.2 µM | < 0.2 µM |
| FC(F)(F)c1cncc(Nc2nccc(-c3cnc4nc[nH]c4c3)n2)c1 [Compound 106, 4-(1H-imidazo[4,5-b]pyridin-6-yl)-N-(5-(trifluoromethyl)pyridin-3-yl)pyrimidin-2-amine] | < 0.2 µM | < 0.2 µM |
| FC(F)(F)c1cccc(Nc2nccc(N3CCc4[nH]cnc4C3)n2)c1 [Compound 112, 4-(1,4,6,7-tetrahydro-5H-imidazo[4,5-c]pyridin-5-yl)-N-(3-(trifluoromethyl)phenyl)pyrimidin-2-amine] | 1 to 10 µM | 1 to 10 µM |
| Oc1cc(-c2ccnc(Nc3cccc(F)c3F)n2)ccn1 [Compound 205, 4-(2-((2,3-difluorophenyl)amino)pyrimidin-4-yl)pyridin-2-ol] | 1 to 10 µM | 1 to 10 µM |
| Clc1cc(Cl)cc(Nc2nccc(-c3ccc4[nH]cnc4c3)n2)c1 [Compound 49, 4-(1H-benzo[d]imidazol-5-yl)-N-(3,5-dichlorophenyl)pyrimidin-2-amine] | 1 to 10 µM | 1 to 10 µM |
| O=C(O)c1cccc(Nc2nccc(-c3ccnc(O)c3)n2)c1 [Compound 196, 3-((4-(2-hydroxypyridin-4-yl)pyrimidin-2-yl)amino)benzoic acid] | 10 to 100 µM | 10 to 100 µM |
| FC(F)(F)c1cncc(Nc2nccc(-c3ccc4[nH]cnc4c3)n2)c1 [Compound 14, 4-(1H-benzo[d]imidazol-5-yl)-N-(5-(trifluoromethyl)pyridin-3-yl)pyrimidin-2-amine] | 10 to 100 µM | 10 to 100 µM |
| COc1ccc(Nc2ccnc(Nc3cccc(F)c3)n2)cn1 [Compound 108, N^2-(3-fluorophenyl)-N^4-(6-methoxypyridin-3-yl)pyrimidine-2,4-diamine] | 1 to 10 µM | 1 to 10 µM |
| c1cc(Nc2nccc(-c3ccc4[nH]cnc4c3)n2)cc(N2CCCCC2)c1 [Compound 65, 4-(1H-benzo[d]imidazol-5-yl)-N-(3-(piperidin-1-yl)phenyl)pyrimidin-2-amine] | 0.2 to 1 µM | 0.2 to 1 µM |
| Fc1ccccc1Nc1nccc(-c2ccc3[nH]cnc3c2)n1 [Compound 66, 4-(1H-benzo[d]imidazol-5-yl)-N-(2-fluorophenyl)pyrimidin-2-amine] | 1 to 10 µM | 1 to 10 µM |
| COc1cc(-c2ccnc(Cc3ccccc3)n2)ccn1 [Compound 230, 2-Benzyl-4-(2-methoxypyridin-4-yl)pyrimidine] | 10 to 100 µM | 10 to 100 µM |
| Oc1cc(-c2ccnc(Nc3ncccn3)n2)ccn1 [Compound 184, 4-(2-(pyrimidin-2-ylamino)pyrimidin-4-yl)pyridin-2-ol] | 10 to 100 µM | 10 to 100 µM |
| COc1cc(-c2ccnc(Sc3ccccc3)n2)ccn1 [Compound 234, 4-(2-methoxypyridin-4-yl)-2-(phenylthio)pyrimidine] | 0.2 to 1 µM | 0.2 to 1 µM |
| Oc1cccc(Nc2nccc(-c3ccc4[nH]cnc4c3)n2)n1 [Compound 22, 6-((4-(1H-benzo[d]imidazol-5-yl)pyrimidin-2-yl)amino)pyridin-2-ol] | 10 to 100 µM | 10 to 100 µM |
| c1cc(Nc2nccc(-c3ccc4[nH]cnc4c3)n2)cc(-c2ccncc2)c1 [Compound 43, 4-(1H-benzo[d]imidazol-5-yl)-N-(3-(pyridin-4-yl)phenyl)pyrimidin-2-amine] | < 0.2 µM | < 0.2 µM |
| Oc1ccnc(-c2ccnc(Nc3cccc(F)c3)n2)c1 [Compound 182, 2-(2-((3-fluorophenyl)amino)pyrimidin-4-yl)pyridin-4-ol] | 1 to 10 µM | 1 to 10 µM |
| FC(F)(F)c1ccccc1Nc1nccc(-c2ccc3[nH]cnc3c2)n1 [Compound 62, 4-(1H-benzo[d]imidazol-5-yl)-N-(2-(trifluoromethyl)phenyl)pyrimidin-2-amine] | 1 to 10 µM | 1 to 10 µM |
